Data: patent US20220396597A1 (priority 2019, published 2022)

What was measured:
α1Q241L mutated GABAARs = α1Q241L mutated GABAARs (UniProt P18507+P47870+P62813, Q268L); experiment: GABA current in N2a cells transfected with α1Q241L, β2 and γ2 subunits; assay type: cell-based; details: 10 μM GABA; AlloP 50 nM, MQ-221 10 μM
NMDAR = experiment: NMDA-induced whole-cell currents in cultured hippocampal neurons (voltage clamp); assay type: cell-based, rat; details: 10 μM NMDA

Chain of α1Q241L mutated GABAARs (P62813 28-455 Q268L): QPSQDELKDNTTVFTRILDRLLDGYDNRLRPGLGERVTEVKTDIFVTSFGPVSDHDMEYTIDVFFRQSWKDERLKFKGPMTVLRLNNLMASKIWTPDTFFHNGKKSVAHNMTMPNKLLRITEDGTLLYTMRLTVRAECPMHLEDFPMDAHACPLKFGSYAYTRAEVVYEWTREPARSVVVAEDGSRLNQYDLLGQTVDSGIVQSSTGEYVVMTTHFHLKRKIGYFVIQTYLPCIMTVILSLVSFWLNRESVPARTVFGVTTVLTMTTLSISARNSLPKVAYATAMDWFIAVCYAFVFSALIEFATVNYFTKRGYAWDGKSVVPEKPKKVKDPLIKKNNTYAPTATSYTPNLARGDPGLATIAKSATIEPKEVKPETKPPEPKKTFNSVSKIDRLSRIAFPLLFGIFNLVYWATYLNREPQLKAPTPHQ
Chain of α1Q241L mutated GABAARs (P47870 25-512 limits assumed): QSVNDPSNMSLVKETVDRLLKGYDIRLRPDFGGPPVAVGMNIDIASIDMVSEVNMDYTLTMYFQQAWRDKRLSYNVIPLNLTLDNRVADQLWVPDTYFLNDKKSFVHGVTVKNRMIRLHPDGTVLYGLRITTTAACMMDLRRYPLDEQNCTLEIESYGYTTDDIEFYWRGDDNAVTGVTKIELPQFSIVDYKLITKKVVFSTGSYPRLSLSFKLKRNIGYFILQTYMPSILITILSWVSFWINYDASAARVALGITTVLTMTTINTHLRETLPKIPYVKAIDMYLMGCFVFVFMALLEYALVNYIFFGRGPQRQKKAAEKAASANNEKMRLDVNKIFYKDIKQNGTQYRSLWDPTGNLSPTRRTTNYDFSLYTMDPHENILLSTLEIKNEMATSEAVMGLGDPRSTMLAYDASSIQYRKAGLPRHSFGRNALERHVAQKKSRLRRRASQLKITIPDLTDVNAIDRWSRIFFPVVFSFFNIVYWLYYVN
Chain of α1Q241L mutated GABAARs (P18507 40-475): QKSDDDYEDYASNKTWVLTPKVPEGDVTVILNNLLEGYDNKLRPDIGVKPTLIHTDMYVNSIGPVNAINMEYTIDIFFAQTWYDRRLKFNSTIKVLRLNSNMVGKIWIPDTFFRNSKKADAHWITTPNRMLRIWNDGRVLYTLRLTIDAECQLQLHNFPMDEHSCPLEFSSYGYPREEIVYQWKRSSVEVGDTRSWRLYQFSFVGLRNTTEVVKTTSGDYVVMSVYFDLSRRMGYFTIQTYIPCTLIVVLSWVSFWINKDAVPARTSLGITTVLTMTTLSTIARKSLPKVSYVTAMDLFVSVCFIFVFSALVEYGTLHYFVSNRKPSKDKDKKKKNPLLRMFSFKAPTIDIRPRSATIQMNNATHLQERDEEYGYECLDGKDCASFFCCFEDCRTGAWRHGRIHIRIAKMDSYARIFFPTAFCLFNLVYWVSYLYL

`CC(=O)[C@H]1CC[C@H]2[C@@H]3CC[C@H]4C[C@H](O)CC[C@]4(C)[C@H]3CC[C@]12C` [allopregnanolone, reference compound] was tested, and the “Effect of the α1 Q241L mutation on potentiation of GABA current” value (α1Q241L mutated GABAARs) was “elimination of allopregnanolone (AlloP) potentiation”.
“pregnanolone sulfate [reference compound]” was tested, and the “Action on closed NMDAR channels (pre-application in the absence of agonist)” value (NMDAR; 2.5 μM MQ-221, 300 μM 3α5βPS) was “little effect on closed channels” and the “Inhibition of NMDAR function in the presence of agonist (co-application)” value (NMDAR; 300 μM 3α5βPS) was “strongly inhibited”.
